Species: Rattus norvegicus
Assay: DrugMatrix - Regimen: Daily Repeat
Type: toxicity, organism-based, Sprague-Dawley
Design: regimen Daily Repeat, gender Male, age 6-8 weeks
Conditions: in vivo, ip, route intraperitoneal, vehicle 100 % SALINE; for ABSOLUTE BASOPHIL / ABSOLUTE EOSINOPHIL / ABSOLUTE LYMPHOCYTE / ABSOLUTE MONOCYTE / ABSOLUTE SEGMENTED NEUTROPHIL / BASOPHIL / EOSINOPHIL / ERYTHROCYTE COUNT / HEMATOCRIT / HEMOGLOBIN / LEUKOCYTE COUNT / LYMPHOCYTE / MEAN CORPUSCULAR HEMOGLOBIN / MEAN CORPUSCULAR HEMOGLOBIN CONCENTRATION / MEAN CORPUSCULAR VOLUME / MONOCYTE / NEUTROPHIL / PLATELET COUNT: tissue Blood; for ALANINE AMINOTRANSFERASE / ALBUMIN / ALKALINE PHOSPHATASE / ASPARTATE AMINOTRANSFERASE / BLOOD UREA NITROGEN / CHLORIDE / CHOLESTEROL / CREATININE / GLUCOSE / LACTATE DEHYDROGENASE / LIPASE / PHOSPHORUS / POTASSIUM / SODIUM / TOTAL BILIRUBIN / TOTAL PROTEIN / URIC ACID / CREATINE PHOSPHOKINASE: tissue Plasma
[1] = 0 mg/kg, 120 h, dose level Control, time 5 day
[2] = 0 mg/kg, […], dose level Control, time 14 day
[3] = 0 mg/kg, […], dose level Control, time 28 day
[4] = 160 mg/kg, 120 h, dose level High, time 5 day

## NCC[C@H](O)C(=O)N[C@@H]1C[C@H](N)[C@@H](O[C@H]2O[C@H](CN)[C@@H](O)[C@H](O)[C@H]2O)[C@H](O)[C@H]1O[C@H]1O[C@H](CO)[C@@H](O)[C@H](N)[C@H]1O [AMIKACIN]
[1]
  ABSOLUTE BASOPHIL: 32 cells/µL
  ABSOLUTE EOSINOPHIL: 110 cells/µL
  ABSOLUTE LYMPHOCYTE: 6630 cells/µL
  ABSOLUTE MONOCYTE: 140 cells/µL
  ABSOLUTE SEGMENTED NEUTROPHIL: 1170 cells/µL
  BASOPHIL: 0.38%
  EOSINOPHIL: 1.28%
  ERYTHROCYTE COUNT: 7.45 x10E6/uL
  HEMATOCRIT: 45.74%
  HEMOGLOBIN: 14.72 G/DL
  LEUKOCYTE COUNT: 8.11 x10E3/uL
  LYMPHOCYTE: 81.3%
  MEAN CORPUSCULAR HEMOGLOBIN: 19.76 pg
  MEAN CORPUSCULAR HEMOGLOBIN CONCENTRATION: 32.16 G/DL
  MEAN CORPUSCULAR VOLUME: 61.38 fL
  MONOCYTE: 1.76%
  NEUTROPHIL: 14.9%
  PLATELET COUNT: 1322.4 x10E3/uL
  ALANINE AMINOTRANSFERASE: 25.8 u/L
  ALBUMIN: 3.64 G/DL
  ALKALINE PHOSPHATASE: 233.6 u/L
  ASPARTATE AMINOTRANSFERASE: 81.4 u/L
  BLOOD UREA NITROGEN: 14.4 mg/dL
  CHLORIDE: 105.6 MEQ/L
  CHOLESTEROL: 69.2 mg/dL
  CREATININE: 0.56 mg/dL
  GLUCOSE: 125.4 mg/dL
  LACTATE DEHYDROGENASE: 105.4 u/L
  LIPASE: 22.4 u/L
  PHOSPHORUS: 11.48 mg/dL
  POTASSIUM: 5.52 MEQ/L
  SODIUM: 147 MEQ/L
  TOTAL BILIRUBIN: 0.2 mg/dL
  TOTAL PROTEIN: 6.1 G/DL
  URIC ACID: 1.06 mg/dL
[2]
  ABSOLUTE BASOPHIL: 130 cells/µL
  ABSOLUTE EOSINOPHIL: 140 cells/µL
  ABSOLUTE LYMPHOCYTE: 13500 cells/µL
  ABSOLUTE MONOCYTE: 400 cells/µL
  ABSOLUTE SEGMENTED NEUTROPHIL: 2330 cells/µL
  BASOPHIL: 0.72%
  EOSINOPHIL: 0.86%
  ERYTHROCYTE COUNT: 7.74 x10E6/uL
  HEMATOCRIT: 45.98%
  HEMOGLOBIN: 13.86 G/DL
  LEUKOCYTE COUNT: 16.61 x10E3/uL
  LYMPHOCYTE: 81.34%
  MEAN CORPUSCULAR HEMOGLOBIN: 18 pg
  MEAN CORPUSCULAR HEMOGLOBIN CONCENTRATION: 30.22 G/DL
  MEAN CORPUSCULAR VOLUME: 59.4 fL
  MONOCYTE: 2.46%
  NEUTROPHIL: 14.14%
  PLATELET COUNT: 1445.5 x10E3/uL
  ALANINE AMINOTRANSFERASE: 31.6 u/L
  ALBUMIN: 3.66 G/DL
  ALKALINE PHOSPHATASE: 228.6 u/L
  ASPARTATE AMINOTRANSFERASE: 79.6 u/L
  BLOOD UREA NITROGEN: 11.2 mg/dL
  CHLORIDE: 107 MEQ/L
  CHOLESTEROL: 57 mg/dL
  CREATINE PHOSPHOKINASE: 233.6 u/L
  CREATININE: 0.5 mg/dL
  GLUCOSE: 124.4 mg/dL
  LACTATE DEHYDROGENASE: 106.4 u/L
  LIPASE: 24.4 u/L
  PHOSPHORUS: 10.52 mg/dL
  POTASSIUM: 6.34 MEQ/L
  SODIUM: 149.2 MEQ/L
  TOTAL BILIRUBIN: 0.2 mg/dL
  TOTAL PROTEIN: 6.48 G/DL
  URIC ACID: 0.94 mg/dL
[3]
  ABSOLUTE BASOPHIL: 91 cells/µL
  ABSOLUTE EOSINOPHIL: 110 cells/µL
  ABSOLUTE LYMPHOCYTE: 9910 cells/µL
  ABSOLUTE MONOCYTE: 210 cells/µL
  ABSOLUTE SEGMENTED NEUTROPHIL: 1560 cells/µL
  BASOPHIL: 0.77%
  EOSINOPHIL: 0.92%
  ERYTHROCYTE COUNT: 8.21 x10E6/uL
  HEMATOCRIT: 47.53%
  HEMOGLOBIN: 15.65 G/DL
  LEUKOCYTE COUNT: 11.91 x10E3/uL
  LYMPHOCYTE: 83.34%
  MEAN CORPUSCULAR HEMOGLOBIN: 19.07 pg
  MEAN CORPUSCULAR HEMOGLOBIN CONCENTRATION: 32.93 G/DL
  MEAN CORPUSCULAR VOLUME: 57.9 fL
  MONOCYTE: 1.68%
  NEUTROPHIL: 12.97%
  PLATELET COUNT: 1323.8 x10E3/uL
  ALANINE AMINOTRANSFERASE: 30 u/L
  ALBUMIN: 3.71 G/DL
  ALKALINE PHOSPHATASE: 186.8 u/L
  ASPARTATE AMINOTRANSFERASE: 78.2 u/L
  BLOOD UREA NITROGEN: 14.2 mg/dL
  CHLORIDE: 105.4 MEQ/L
  CHOLESTEROL: 44.9 mg/dL
  CREATINE PHOSPHOKINASE: 334.3 u/L
  CREATININE: 0.6 mg/dL
  GLUCOSE: 147.2 mg/dL
  LACTATE DEHYDROGENASE: 123.1 u/L
  LIPASE: 9.6 u/L
  PHOSPHORUS: 10.01 mg/dL
  POTASSIUM: 6.57 MEQ/L
  SODIUM: 149.5 MEQ/L
  TOTAL BILIRUBIN: 0.21 mg/dL
  TOTAL PROTEIN: 6.66 G/DL
  URIC ACID: 1.26 mg/dL
[4]
  ABSOLUTE BASOPHIL: 42 cells/µL
  ABSOLUTE EOSINOPHIL: 76 cells/µL
  ABSOLUTE LYMPHOCYTE: 7260 cells/µL
